Measurements as given in US20090099218A1, “SYNTHESIS OF NOVEL TUBULIN POLYMERIZATION INHIBITORS: BENZOYLPHENYLUREA (BPU) SULFUR ANALOGS” (priority 2007, published 2009).

Key:
LnCaP = test: MTT growth inhibition, prostate cancer cell line LnCaP; assay type: cell-based, human; details: MTT assay, average of three independent experiments
Description: (§1) This MTT assay was carried using human prostate cancer cell lines CWR22R, LAPC-4 and LnCap using Promega cell titer 96 nonradioactive cell proliferation kits. Cells were trypsinized and centrifuged at 1000 rpm for 5 minutes and the supernatant was aspirated. Cells were resuspended with HBSS to a concentration of 10^6/ml. Cell suspension was diluted in serum containing medium to plate 2000 cells/well/0.2 ml. Cell suspension was transferred to sterile solution basin. Cells were plated using multichannel pipette set at 200 μl and incubated overnight for attachment. One plate was prepared for day 0 MTT assay as follows: 100 μl of media was removed from each well using multichannel pipette and 15 μl of MTT reagent was added. Plates were incubated at 37° C. for 4 hrs. […] of STOP solution was added to each well and incubated at room temperature for 1 hour. Absorbance was measured at 570 and 650 nm on plate reader. All the media from the remaining plates were carefully removed and the cells were treated with the media containing drug. MTT assays were done on days 0, 3, 5 and 7. In the preliminary screening […] BPU sulfur analogs 6l, 6h, 6n, 7d and 8h were screened and their activity was compared with compound 1.
(§2) Compounds with significant inhibitory activity in pancreatic cancer cells were further evaluated against prostate cancer cell lines in the MTT assay, (Mosmann, T., J. Immunol. Methods 65:55-63 (1983)) and the results were compared to those for compound 1 (Table 3).

Miapaca2 = test: MTT growth inhibition, pancreatic cell line Miapaca2; assay type: cell-based; details: MTT assay, 96 h treatment, average of three independent experiments
Description: (§3) Eight of these analogs 6d, 6h, 6n, 6g, 7b, 7d, 8g, and 8h were tested for their cytotoxicity in seven pancreatic cell lines ASPC1, Panc1, Panc203, Panc430, Pane 1005, MiaPaca2, and HS766T using MTT assay. Cells were trypsinized, seeded at 5×10^3 cells/well in 96-well plate and allowed to grow for 24 hours before the treatment with exponential increasing concentrations of drugs in the presence of 10% FBS. After a 96-hours period of treatment, 20 μl of MTT solution (5 mg/ml in PBS) were added to each well, and the plates were then incubated for 3 hours at 37° C. Medium was then replaced with 100 μl of DMSO per well. Plates were shaken and the optical density was measured at 570 nm using a multiwell plate reader (Bio-Rad, Model 550, Bio-Rad Inc., Hercules, Calif.). Each experiment was performed in triplicate for each drug concentration and was carried out independently at least 3 times. The IC50 value was defined as the concentration needed for a 50% reduction in the absorbance calculated based on the survival curves. Response to drug treatment was assessed by standardizing treatment groups to untreated controls. Compounds activity was compared with compound 1.
(§4) Table 2 (Growth Inhibition of Pancreatic Cancer Cell Lines by BPU and BPTU Analogues (IC50) a) compares the cytotoxicity of a series of new derivatives against a panel of seven pancreatic cancer cell lines, as determined by MTT assay. See, Mosmann, T., J. Immunol. Methods 65:55-63 (1983).

Panc430 = test: MTT growth inhibition, pancreatic cell line Panc430; assay type: cell-based; details: MTT assay, 96 h treatment; average of three independent experiments
Description: as §3, §4

Panc1 = test: MTT growth inhibition, pancreatic cell line Panc1; assay type: cell-based; details: MTT assay, 96 h treatment, average of three independent experiments
Description: as §3, §4

HS766 = test: MTT growth inhibition, pancreatic cell line HS766; assay type: cell-based; details: MTT assay, 96 h treatment, average of three independent experiments
Description: as §3, §4

LAPC-4 = test: MTT growth inhibition, prostate cancer cell line LAPC-4; assay type: cell-based, human; details: MTT assay, average of three independent experiments
Description: as §1, §2

ASPC1 = test: MTT growth inhibition, pancreatic cell line ASPC1; assay type: cell-based; details: MTT assay, 96 h treatment, average of three independent experiments
Description: as §3, §4

Panc203 = test: MTT growth inhibition, pancreatic cell line Panc203; assay type: cell-based; details: MTT assay, 96 h treatment, average of three independent experiments
Description: as §3, §4

CWR22R = test: MTT growth inhibition, prostate cancer cell line CWR22R; assay type: cell-based, human; details: MTT assay, average of three independent experiments
Panc1005 = test: MTT growth inhibition, pancreatic cell line Panc1005; assay type: cell-based; details: MTT assay, 96 h treatment, average of three independent experiments
Description: as §3, §4

[1] = system: pancreas cancer xenografts; test: In vivo growth inhibition of patient-derived pancreas cancer xenografts; set-up: species or system athymic nude mice
Description: Six-week-old female athymic nude mice (Harlan) were used. The research protocol was approved by the Johns Hopkins University Animal Care and Use Committee, and animals were maintained in accordance to guidelines of the American Association of Laboratory Animal Care. Surgical non-diagnostic specimens from patients who had undergone surgery at the Johns Hopkins Hospital were implanted s.c. in one to two mice for each patient, with two small pieces per mouse (F1 generation). Tumors were grown to 1.5 cm^3 and then harvested, divided into small ˜3×3×3 mm pieces, and transplanted to another five mice, with two tumors per mouse (F2 generation). After a second growth passage, tumors were excised and propagated to cohorts of ≧20 mice. These groups constituted the F3, or treatment cohort. Tumors from this third mouse-to-mouse passage were allowed to grow to ˜200 mm3, at which time mice were randomized into three treatment groups, with five to six mice (10 evaluable tumors) in each group: control (vehicle), 6n (50 mg/kg i.p. twice per week), and 7d (50 mg/kg i.p. twice per week). Docetaxel treatment was given to selected groups at a dose of 30 mg/kg i.p. once a week for 2 weeks. Mice were monitored daily for signs of toxicity and were weighed thrice per week. Tumor size was evaluated twice per week by caliper measurements using the following formula: tumor volume=[length×width^2]/2. Relative tumor growth inhibition was calculated by relative tumor growth of treated mice divided by relative tumor growth of control mice from the onset of therapy (T/C).
To assess the treatment effect, a hierarchical linear regression model was used with random intercepts and fixed slopes. Based on the results of exploratory plots, the assumption of fixed effects for slopes seemed reasonable. This model allowed for mouse effects to be nested within patient effects so that the hierarchical structure is fully accounted for. Specifically, the following linear regression model was fitted: log(γiJt)=a1ijtimeijt+b2jtimeijt×trtij+βtime^2ijt+eijt where j indexes patient, i indexes mouse, and t indexes time; yijt is the percentage change in tumor volume (compared with day 0) in mouse i, which is a xenograft for patient j at time t; and trtij is treatment (1=treated, 0=control) received by mouse i, which is a xenograft for patient j. […] An intercept and main effect of treatment were not included in the model that makes two assumptions: (a) at time 0, the change from baseline is 0 (which is empirically true), and (b) at baseline, the treated and untreated curves intersect. The model was fit using Win-Bugs software that estimates models using a Markov chain Monte Carlo estimation procedure. A burn-in of 10,000 iterations was done, and then the chain was run for an additional 20,000 iterations, of which every 10th iteration was saved for inference. Several chains were run with different starting values to ensure convergence. No convergence issues arose. The fitted model was used to make inferences with respect to the treatment effect and to create fitted regression lines (rescaled on the Y-axis for clearer interpretation). Point estimates of variables of interest (e.g., expected difference in tumor volume between treated and control at 28 days) and 95% credible intervals were based on the mean of posterior distributions and the 2.5th and 97.5th quantiles of the posterior distribution, respectively. The comparisons between means and proportions obtained from the biological studies were done using Student's t-test and χ^2 method, respectively. ANOVA was used when three or more variables were compared.
Tumors from nine cases of pancreatic cancer were used to establish xenografts in nude mice, and the animals were treated with either vehicle, 6n, or 7d (FIG. 36A). The level of efficacy varied both between drugs and within cases treated with each drug. FIG. 37 provides an integrated summary of all data points obtained in the studies. […]

tubulin [2] = test: Inhibition of [3H]colchicine binding; details: Tubulin 1 μM; [3H]colchicine and inhibitor at 5 μM
MCF-7 cells = test: Apoptosis of MCF-7 cells; assay type: cell-based; details: 48 hours
[3] = system: seven pancreatic cell lines; test: MTT cytotoxicity, panel of seven pancreatic cancer cell lines; assay type: cell-based; details: Pancreatic cancer cell, all seven pancreatic cell lines
Description: as §3, §4

tubulin [4] = test: Inhibition of tubulin polymerization; assay type: biochemical; details: Tubulin was at 10 μM; read-out: tubulin IC50 ± SD (inhibition of tubulin polymerization)
Description: Briefly, tubulin polymerization was followed turbidimetrically at 350 nm in Beckman model DU7400 and DU7500 recording spectrophotometers equipped with electronic temperature controllers. […] Samples were pre-incubated for 15 min at 30° C. and chilled on ice. GTP (final concentration, 0.4 mmol/L) was added to each reaction mixture, and these were placed in cuvettes held at 0° C. Baselines were established, the temperature was raised to 30° C.

IC50 (Miapaca2; Homo sapiens, MIA PaCa-2) [µM]	IC50 (Panc430) [µM]	IC50 (Panc1; Homo sapiens, PANC-1) [µM]	IC50 (ASPC1; Homo sapiens, ASPC1) [µM]	IC50 (Panc203; Homo sapiens, Panc203) [µM]	IC50 (Panc1005; Homo sapiens, Panc1005) [µM]	IC50 (LnCaP) [µM]	IC50 (Miapaca2) [µM]	IC50 (Panc1) [µM]	IC50 (LAPC-4) [µM]	IC50 (ASPC1) [µM]	IC50 (Panc203) [µM]	IC50 (CWR22R) [µM]	IC50 (Panc1005) [µM]	Structure (SMILES)	IC50 (HS766; Homo sapiens, Hs 766) [µM]	IC50 (HS766) [µM]	also measured
10	7.5	9.5	10	> 10	> 10									Brc1cnc(Sc2ccc(N=CSN=COc3ccccc3)cc2)nc1 [Compound 6h]	8.5		IC50 (LnCaP; Homo sapiens, LNCaP): > 10 µM; IC50 (LAPC-4; Homo sapiens, LAPC4): 6 µM; IC50 (CWR22R; Homo sapiens, 22Rv1): > 10 µM
														CC(=O)O[C@@]12CO[C@@H]1C[C@H](O)[C@@]1(C)C(=O)[C@H](O)C3=C(C)[C@@H](OC(=O)[C@H](O)[C@@H](NC(=O)OC(C)(C)C)c4ccccc4)C[C@@](O)([C@@H](OC(=O)c4ccccc4)[C@H]21)C3(C)C [Docetaxel, docetaxel, reference compound]			efficacy in case 194 ([1]; case with the greatest expression of MAPT): inactive; efficacy in case 185 ([1]; docetaxel 30 mg/kg i.p. once a week for 2 weeks): lower efficacy than 6n; efficacy in case 215 ([1]; low MAPT-expressing case, docetaxel 30 mg/kg i.p. once a week for 2 weeks): particularly efficacious
														COc1cc([C@@H]2c3cc4c(cc3[C@H](O)[C@H]3COC(=O)[C@H]23)OCO4)cc(OC)c1OC [podophyllotoxin, reference compound]			colchicine binding (% ± SD), inhibition of [3H]colchicine binding (tubulin [2]): 77 ± 8%
	0.8					0.5	0.85	0.7	0.25	0.85	0.95	1	5	Cc1cc(NC(=O)NC(=O)c2ccccc2N(C)C)ccc1Oc1ncc(Br)cn1 [Compound 1, reference compound]		1	rate of apoptosis (MCF-7 cells; 10 nM): 16.1%; rate of apoptosis (MCF-7 cells; 30 nM): 19.5%; rate of apoptosis (MCF-7 cells; 100 nM): 27.7%
8	5.5	6.5	2.5	5.5	5.5									O=[N+]([O-])c1ccccc1OC=NOC=Nc1ccc([S+]([O-])c2ncc(Br)cn2)cc1 (stereo not shown) [Compound 8g]	6.5		IC50 [3]: 2.5 to 8 µM
	> 10					0.75	0.92	3.5	0.75	5.2	> 10	2	> 10	Nc1ccccc1C(=O)NC(=O)Nc1ccc(Oc2nccc(Br)n2)cc1 [Compound 7c]		0.27	IC50 (tubulin [4]): 36 ± 0.7 µM
